{
  "source": "patent US7241733B2",
  "about": "“Mammalian EPO mimetic CH1 deleted mimetibodies, compositions, methods and uses” (Centocor, Inc., priority 2003, dated 2007)",
  "key": {"[1]": {"system": "cells that express the EPO receptor", "assay": "complement lysis of cells that express the EPO receptor", "type": "cell-based", "settings": "preliminary studies", "excerpt": "It has been shown that mutation of two […] (L) residues, L234 & L235, in the IgG1 lower hinge region to alanine (A) will abrogate the ability of the immunoglobulin to mediate complement dependent cytotoxicity (CDC) and antibody dependant cellular cytotoxicity (ADCC) (Hezereh et al., 2001, J. Virol., vol. 75 (24), 12161-68). […] This may be due to the low number of receptors that are found on erythroid progenitor cells. In addition the in vivo expansion of erythriod progenitors as evidenced by significant increases in hematocrit supports the possible functional irrelevance of immune effector functions. However, while no effector function associated affects have been observed, there remains an interest in introducing these mutations as a precautionary step."}, "[2]": {"assay": "serum concentrations measured by ELISA in normal mice", "type": "in vivo", "procedure": "(§1) In vivo studies were done in normal mice to compare the half-life of EMP-NfusCG1 to that of rHuEPO and to compare their effects on erythropoiesis. […] Also seen in preliminary studies, when rHuEPO was dosed at 2000 U/kg the hematocrit of the mice was maximally elevated on day 4 and fell back to near baseline levels by day 7. […] The difference in molecular weights was also taken into consideration (rHuEPO=30,400 daltons, EMP-NfusCG1=62,200 daltons).\nThe serum concentrations of both rHuEPO and EMP-NfusCG1 were measured by ELISA. […] This is consistent with the expected 2 to 8 hour half-life of rHuEPO in rodents. (PRI Expert Report, Part IC2: Toxico-Pharmacological Documentation). In contrast, levels of EMP-NfusCG1 as high as 1.5 ug/mL were detected on day 4 and remained high through the end of the study. The linearity of the clearance profile in FIG. 6 is unusual. It may be that, since the first time point was 3 days after the last injection, the maximum concentration (Cmax) was reached before the first sample was taken and therefore the peak of the exponential curve was not observed. Another explanation is that the absorption and elimination profiles of this novel construct are such that the clearance profile appears linear."}, "normal mice": {"system": "normal mice", "assay": "in vivo erythropoiesis (hematocrit) in normal mice", "settings": "equal activity units", "procedure": "as §1"}, "[3]": {"system": "EPO dependent UT-7/EPO cell line", "assay": "in vitro bioactivity assay: UT-7/EPO cell viability after rHuEPO withdrawal (MTS)", "type": "cell-based, human", "procedure": "The activity of EMP-NfusCG1 was first tested in an in vitro bioactivity assay. For this assay, the EPO dependent UT-7/EPO cell line, derived from a patient with acute megakaryoblastic leukemia, was used (Komatsu et al., 1993, Blood, vol. 82 (2), 456-464). These cells undergo programmed cell death 48 to 72 hours after withdraw from media supplemented with rHuEPO. Cells that have been incubated in the absence of rHuEPO for 24 hours can be saved if treated with rHuEPO or an EPO agonist. EMP-NfusCG1 was added to cells starved without rHuEPO and cell viability was determined 48 hours after treatment using the tetrazolium compound MTS (CellTiter 96 Aqueous One Solution, Promega) that is metabolized by living cells to yield a product with an absorbance that can be measured. […] In addition, these same cells were stimulated with EMP-NfusCG1 and tyrosine phosphorylation patterns visualized by running cell lysate through a polyacrylamide gel."}, "[4]": {"settings": "50% serum; cited from earlier work"}},
  "note": "“Also recorded” adds a separate entry of the source.",
  "data": [
    {"substance": "EMP-NfusCG1: EMP-1 peptide, two Gly-Gly-Gly-Ser repeats, human J region, IgG1 hinge, CH2 and CH3; SEQ ID NO:50", "values": [
      {"measurement": "complement lysis of cells that express the EPO receptor", "setting": "[1]", "value": "does not mediate complement lysis"},
      {"measurement": "serum level detected on day 4", "setting": "[2]; day 4, ELISA", "value": "≤ 1500", "unit": "ng/mL"},
      {"measurement": "approximate half-life", "setting": "[2]; normal mice, calculated from serum clearance profile", "value": "~259", "unit": "h"},
      {"measurement": "duration of hematocrit response compared to rHuEPO", "setting": "normal mice", "value": "elevated levels are maintained for a longer period; also recorded: prolonged"},
      {"measurement": "maximal hematocrit response compared to rHuEPO", "setting": "normal mice", "value": "significantly higher maximal hematocrit; also recorded: higher maximal response"}
    ]},
    {"substance": "EMP-NfusCG4: identical to EMP-NfusCG1 except that the hinge and constant regions are of the G4 subtype; SEQ ID NO:51", "values": [
      {"measurement": "EC50", "setting": "[3]; average", "value": 0.35, "unit": "nM"},
      {"measurement": "potency relative to EMP-NfusCG1 (fold less), on average", "setting": "[3]; average of assays", "value": "about 10 fold"},
      {"measurement": "expected difference to rHuEPO", "setting": "[3]; worked out from 10 fold vs EMP-NfusCG1 and 5 fold vs rHuEPO", "value": "about 50 fold"}
    ]},
    {"substance": "EMP-1: 20 amino acid peptide with no sequence homology to HuEPO, able (as a dimer) to activate the EPO receptor (GGTYSCHFGPLTWVCKPQGG)", "values": [
      {"measurement": "ex-vivo half-life", "setting": "[4]", "value": 8, "unit": "h"}
    ]}
  ]
}
